{"source": "patent US8940857B2", "about": "“Methods and compositions for enhancing delivery of double-stranded RNA or a double-stranded hybrid nucleic acid to regulate gene expression in mammalian cells” (Marina Biotech, Inc., priority 2004, dated 2015)", "note": "Oligonucleotides are written 5' to 3', each unit as a sugar letter and its base; * is a phosphorothioate linkage, no mark a phosphodiester; rarer units and linkages stand in square brackets, end groups in braces. Plain capitals give the bases only. No end group written: not given here. maleimide = maleimide group (amino-terminal modification); d = 2'-deoxy (DNA); r = 2'-OH (RNA)"}
{"system": "epithelial monolayers", "experiment": "Peptide-mediated changes in trans-epithelial electrical resistance (TEER), permeation across epithelial monolayers", "format": "cell-based", "settings": "measured by peptide-mediated changes in TEER"}
{"substance": "NH2-KETWWETWWTEWSQPGRKKRRQRRRPPQ-amide (SEQ ID NO: 11) (H-KETWWETWWTEWSQPGRKKRRQRRRPPQ-NH2) [PN183]", "Effects (activity to enhance permeation across epithelial monolayers)": "+"}
{"substance": "NH2-LLETLLKPFQCRICMRNFSTRQARRNHRRRHRR-amide (SEQ ID NO: 9) (H-LLETLLKPFQCRICMRNFSTRQARRNHRRRHRR-NH2; cysteine pairing not given here) [PN202]", "Effects (activity to enhance permeation across epithelial monolayers)": "+"}
{"substance": "RKKRRQRRRPPQCAAVALLPAVLLALLAP-amide (SEQ ID NO: 1) (RKKRRQRRRPPQCAAVALLPAVLLALLAP-NH2) [PN0028]", "Effects (activity to enhance permeation across epithelial monolayers)": "+"}
{"substance": "Maleimide-GLGSLLKKAGKKLKQPKSKRKV-amide (SEQ ID NO: 12) (maleimide-GLGSLLKKAGKKLKQPKSKRKV-NH2) [PN283]", "Effects (activity to enhance permeation across epithelial monolayers)": "+"}
{"substance": "BrAc-KLALKLALKALKAALKLA-amide (SEQ ID NO: 4) (HELM PEPTIDE1{[O=C(CBr)[*:2]].K.L.A.L.K.L.A.L.K.A.L.K.A.A.L.K.L.A.[am]}$$$$V2.0; SMILES CC(C)C[C@H](NC(=O)[C@H](C)NC(=O)[C@H](CCCCN)NC(=O)[C@H](CC(C)C)NC(=O)[C@H](C)NC(=O)[C@H](CC(C)C)NC(=O)[C@H](CCCCN)NC(=O)[C@H](CC(C)C)NC(=O)[C@H](C)NC(=O)[C@H](CC(C)C)NC(=O)[C@H](CCCCN)NC(=O)CBr)C(=O)N[C@@H](CCCCN)C(=O)N[C@@H](C)C(=O)N[C@@H](C)C(=O)N[C@@H](CC(C)C)C(=O)N[C@@H](CCCCN)C(=O)N[C@@H](CC(C)C)C(=O)N[C@@H](C)C(N)=O) [PN0068]", "Effects (activity to enhance permeation across epithelial monolayers)": "+"}
{"substance": "BrAc-GWTLNSAGYLLGKINLKALAALAKKILamide (SEQ ID NO: 3) [PN0064]", "Effects (activity to enhance permeation across epithelial monolayers)": "+"}
{"substance": "NH2-RRRQRRKRGGDIMGEWGNEIFGAIAGFLG-amide (SEQ ID NO: 10) (H-RRRQRRKRGGDIMGEWGNEIFGAIAGFLG-NH2; listed as Influenza virus) [PN250]", "Effects (activity to enhance permeation across epithelial monolayers)": "+"}
{"substance": "RRRRRRR (SEQ ID NO: 6) [PN0071]", "Effects (activity to enhance permeation across epithelial monolayers)": "−"}
{"substance": "NH2-AAVALLPAVLLALLAPRKKRRQRRRPPQ-amide (SEQ ID NO: 8) (H-AAVALLPAVLLALLAPRKKRRQRRRPPQ-NH2) [PN027]", "Effects (activity to enhance permeation across epithelial monolayers)": "+"}
{"substance": "GRKKRRQRRRPQ-amide (SEQ ID NO: 5) (GRKKRRQRRRPQ-NH2) [PN0069]", "Effects (activity to enhance permeation across epithelial monolayers)": "−"}
{"substance": "RQIKIWFQNRRMKWKK-amide (SEQ ID NO: 2) (RQIKIWFQNRRMKWKK-NH2) [PN0058]", "Effects (activity to enhance permeation across epithelial monolayers)": "+"}
{"system": "beta-galactosidase mRNA", "experiment": "Transfection of 9L/LacZ cells with siRNA and lipofectamine, beta-Gal/BCA assay (silencing of beta-galactosidase)", "format": "cell-based", "settings": "9L/beta-gal cells, transfected with lipofectamine; control = cells transfected by lipofectamine alone; lower = greater efficacy", "procedure": "Transfection of 9L/LacZ Cells:\n• a) Take saturated 9L/LacZ culture from T75 flask, detach cell and dilute into 10 ml with complete medium (DMEM, 1× PS, 1× Na Pyruvate, 1× NEAA). • b) Further dilute the cell to 1:15, and seed 100 μl into each 96 well, which should give 50% confluence cell the next day for transfection. […] Flow Cytometry Measurement of FITC/FAM Conjugated siRNA • a) After transfection, incubate cell for at least 3 hours. • b) Wash with 200 μl PBS. • c) Detach cell with 15 μl TE, incubate at 37° C. • d) Re-suspend five wells with 30 μl FACS solution (PBS with 0.5% BSA, and 0.1% sodium Azide) • e) Combine all five wells into a tube. • f) Add PI 5 μl into each tube. • g) Analyze the cells with fluorescence activated cell sorting (FCAS) with BD FACscan instrument according to manufacture's instruction.\nThe transfection was performed with either regular siRNA or cholesterol-conjugated siRNA with lipofectamine (Invitrogen) on 9L/beta-gal cells. The siRNA was designed to specifically knock down beta-galactosidase mRNA and activities are expressed as percentage of beta-gal activities from control (transfected cells by lipofectamine alone). […]"}
{"substance": "AA: siRNA construct with no cholesterol conjugated to any of the ends of the sense or antisense RNA strands (SEQ ID NO: 14/15) (sense rCrUrArCrArCrArArArUrCrArGrCrGrArUrUrUdTdT; antisense rArArArUrCrGrCrUrGrArUrUrUrGrUrGrUrArGdTdT)", "Activity (% of control): beta-galactosidase activity remaining after the transfection": "23.12 % of control"}
